Source: patent US20160122320A1, “USEFUL COMBINATIONS OF MONOBACTAM ANTIBIOTICS WITH BETA-LACTAMASE INHIBITORS” (Basilea Pharmaceutica AG, priority 2005, published 2016)
Where a name gives a salt, the structure may show the parent alone.

Columns and labels:
Test in all cases: MIC, NCCLS broth microdilution
Type in all cases: cell-based
[1] = tested on: Klebsiella pneumoniae CF104; conditions: MIC of antibiotic compound 1 with the labelled bridged monobactam of formula II and clavulanate, 4 mg/L each
Acinetobacter sp. J2 = conditions: Acinetobacter sp. J2; MIC of antibiotic compound 1 with the labelled bridged monobactam of formula II and clavulanate, 4 mg/L each
Enterobacter cloacae P99 = conditions: MIC of antibiotic compound 1 with the labelled bridged monobactam of formula II and clavulanate, 4 mg/L each
[2] = tested on: Stenotrophomonas malthophilia 1AC736; conditions: Stenotrophomonas malthophilia 1AC736; MIC of antibiotic compound 1 with the labelled bridged monobactam of formula II and clavulanate, 4 mg/L each
Serratia marcescens S6 = conditions: MIC of antibiotic compound 1 with the labelled bridged monobactam of formula II and clavulanate, 4 mg/L each
[3] = tested on: Pseudomonas aeruginosa 1973E; conditions: MIC of antibiotic compound 1 with the labelled bridged monobactam of formula II and clavulanate, 4 mg/L each
Procedure, shortened: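 Broth microdilution following NCCLS M7-A5, with final DMSO ≤1%. Plates were incubated overnight at 30° C. or 37° C. and growth was read by eye; MIC is the lowest concentration giving complete inhibition of visible growth. In combination tests the formula I compound was serially diluted while partner compounds were held at 4 μg/mL each.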

[4] = tested on: Pseudomonas aeruginosa MK1184; conditions: MIC of antibiotic compound 1 with the labelled bridged monobactam of formula II and clavulanate, 4 mg/L each

| MIC of antibiotic at fixed inhibitor concentration (4 mg/L) [1] | MIC of antibiotic at fixed inhibitor concentration (4 mg/L) (Acinetobacter sp. J2) [µg/mL] | MIC of antibiotic at fixed inhibitor concentration (4 mg/L) (Enterobacter cloacae P99) [µg/mL] | MIC of antibiotic at fixed inhibitor concentration (4 mg/L) [2] [µg/mL] | MIC of antibiotic at fixed inhibitor concentration (4 mg/L) (Serratia marcescens S6) [µg/mL] | MIC of antibiotic at fixed inhibitor concentration (4 mg/L) [3] [µg/mL] | MIC of antibiotic at fixed inhibitor concentration (4 mg/L) [4] [µg/mL] | Structure (SMILES) |
| --- | --- | --- | --- | --- | --- | --- | --- |
| 0.25 µg/mL | >32 | 16 | 0.125 | 0.25 | 4 | >32 | O=C(Nc1ccc2[nH]c(=O)[nH]c2c1)N1CC[C@@H]2[C@H]1C(=O)N2S(=O)(=O)[O-].[Na+] [Compound 319, Sodium(1S,5R)-7-oxo-2-[N-(2-oxo(3-hydrobenzimidazol-5-yl))carbamoyl]-2,6-diazabicyclo[3.2.0]heptane-6-sulfonate] |
| 0.5 µg/mL | 8 | 32 | 0.125 | 0.25 | 4 | 8 | Nc1cc[n+](CC(=O)N2CC[C@@H]3[C@H]2C(=O)N3S(=O)(=O)[O-])cc1 [Compound 103, (1S,5R)-2-[2-(4-aminopyridinium)acetyl]-7-oxo-2,6-diazabicyclo[3.2.0]heptane-6-sulfonate, inner salt] |
| <=0.06 mg/L | 16 | >32 | 0.125 | 0.5 | 8 | >32 | CN(C)c1cc[n+](CC(=O)N2CC[C@@H]3[C@H]2C(=O)N3S(=O)(=O)[O-])cc1 [Compound 112, (1S,5R)-2-{2-[4-(dimethylamino)pyridinium]acetyl}-7-oxo-2,6-diazabicyclo[3.2.0]heptane-6-sulfonate, inner salt] |
| 4 µg/mL | >32 | 4 | 0.25 | 0.25 | 4 | >32 | NC(=O)c1cccc(NC(=O)N2CC[C@@H]3[C@H]2C(=O)N3S(=O)(=O)[O-])c1.[Na+] [Compound 305] |
| 2 µg/mL | >32 | 32 | 0.125 | 0.25 | 4 | >32 | O=C(NCc1ccccc1)N1CC[C@@H]2[C@H]1C(=O)N2S(=O)(=O)[O-].[Na+] [Compound 302] |
| 1 µg/mL | 4 | 8 | 0.125 | 0.25 | 4 | >32 | NC(=O)Nc1ccc(NC(=O)N2CC[C@@H]3[C@H]2C(=O)N3S(=O)(=O)[O-])cc1.[Na+] [Compound 315] |
| 0.5 µg/mL | 16 | 8 | 0.125 | 0.25 | 4 | 32 | O=C(Nc1ccc(O)cc1)N1CC[C@@H]2[C@H]1C(=O)N2S(=O)(=O)[O-].[Na+] [Compound 316] |
